Patent US20220281848A1, “PYRAZOLE-SUBSTITUTED PYRROLIDINONES AS HERBICIDES” (FMC Corporation, priority 2019, published 2022)

Tested on: plants
Test: Test D post-emergence, other plants of Tables D2 and D4
Format: in vivo
Conditions: for ALOMY damage rating (100=total damage to plant; 0=no damage to plant) / AVEFA damage rating (100=total damage to plant; 0=no damage to plant) / BEAVA damage rating (100=total damage to plant; 0=no damage to plant) / BROTE damage rating (100=total damage to plant; 0=no damage to plant) / BRSNN damage rating (100=total damage to plant; 0=no damage to plant) / CHEAL damage rating (100=total damage to plant; 0=no damage to plant) / GALAP damage rating (100=total damage to plant; 0=no damage to plant) / HORVW damage rating (100=total damage to plant; 0=no damage to plant) / KCHSC damage rating (100=total damage to plant; 0=no damage to plant) / LOLPE damage rating (100=total damage to plant; 0=no damage to plant) / POAAN damage rating (100=total damage to plant; 0=no damage to plant) / POLCO damage rating (100=total damage to plant; 0=no damage to plant) / SINAR damage rating (100=total damage to plant; 0=no damage to plant) / STEME damage rating (100=total damage to plant; 0=no damage to plant) / VERPE damage rating (100=total damage to plant; 0=no damage to plant): "Cereals" Postemergent, evaluated after 15 d; for damage to plant (100=total damage to plant; 0=no damage to plant), ABUTH / damage to plant (100=total damage to plant; 0=no damage to plant), AMARE / damage to plant (100=total damage to plant; 0=no damage to plant), BIDPI: post-emergence
Outline: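 Damage was rated visually from 0 (none) to 100 (total), at 20 DAA for pre-emergence and 15 d for post-emergence. Plants grew from safener-treated seed in a glasshouse at 24/18° C. or 20/16° C. day/night, 65% humidity, watered twice daily.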

CN1CC(c2cc(C(F)(F)F)n(C)n2)C(C(=O)Nc2cccc(F)c2F)C1=O (racemic) [Compound 3]
ALOMY damage rating (100=total damage to plant; 0=no damage to plant) (Rates 130): 0
ALOMY damage rating (100=total damage to plant; 0=no damage to plant) (Rates 250): 0
ALOMY damage rating (100=total damage to plant; 0=no damage to plant) (Rates 500): 20
AVEFA damage rating (100=total damage to plant; 0=no damage to plant) (Rates 130): 0
AVEFA damage rating (100=total damage to plant; 0=no damage to plant) (Rates 250): 0
AVEFA damage rating (100=total damage to plant; 0=no damage to plant) (Rates 500): 30
BEAVA damage rating (100=total damage to plant; 0=no damage to plant) (Rates 130): 0
BEAVA damage rating (100=total damage to plant; 0=no damage to plant) (Rates 250): 10
BEAVA damage rating (100=total damage to plant; 0=no damage to plant) (Rates 500): 10
BROTE damage rating (100=total damage to plant; 0=no damage to plant) (Rates 130): 0
BROTE damage rating (100=total damage to plant; 0=no damage to plant) (Rates 250): 0
BROTE damage rating (100=total damage to plant; 0=no damage to plant) (Rates 500): 0
BRSNN damage rating (100=total damage to plant; 0=no damage to plant) (Rates 130): 10
BRSNN damage rating (100=total damage to plant; 0=no damage to plant) (Rates 250): 10
BRSNN damage rating (100=total damage to plant; 0=no damage to plant) (Rates 500): 0
CHEAL damage rating (100=total damage to plant; 0=no damage to plant) (Rates 130): 0
CHEAL damage rating (100=total damage to plant; 0=no damage to plant) (Rates 250): 0
CHEAL damage rating (100=total damage to plant; 0=no damage to plant) (Rates 500): 0
GALAP damage rating (100=total damage to plant; 0=no damage to plant) (Rates 130): 0
GALAP damage rating (100=total damage to plant; 0=no damage to plant) (Rates 250): 0
GALAP damage rating (100=total damage to plant; 0=no damage to plant) (Rates 500): 0
HORVW damage rating (100=total damage to plant; 0=no damage to plant) (Rates 130): 0
HORVW damage rating (100=total damage to plant; 0=no damage to plant) (Rates 250): 0
HORVW damage rating (100=total damage to plant; 0=no damage to plant) (Rates 500): 30
KCHSC damage rating (100=total damage to plant; 0=no damage to plant) (Rates 130): 0
KCHSC damage rating (100=total damage to plant; 0=no damage to plant) (Rates 250): 0
KCHSC damage rating (100=total damage to plant; 0=no damage to plant) (Rates 500): 0
LOLPE damage rating (100=total damage to plant; 0=no damage to plant) (Rates 130): 0
LOLPE damage rating (100=total damage to plant; 0=no damage to plant) (Rates 250): 0
LOLPE damage rating (100=total damage to plant; 0=no damage to plant) (Rates 500): 0
POAAN damage rating (100=total damage to plant; 0=no damage to plant) (Rates 130): 0
POAAN damage rating (100=total damage to plant; 0=no damage to plant) (Rates 250): 20
POAAN damage rating (100=total damage to plant; 0=no damage to plant) (Rates 500): 50
POLCO damage rating (100=total damage to plant; 0=no damage to plant) (Rates 130): 0
POLCO damage rating (100=total damage to plant; 0=no damage to plant) (Rates 250): 0
POLCO damage rating (100=total damage to plant; 0=no damage to plant) (Rates 500): 0
SINAR damage rating (100=total damage to plant; 0=no damage to plant) (Rates 130): 0
SINAR damage rating (100=total damage to plant; 0=no damage to plant) (Rates 250): 0
SINAR damage rating (100=total damage to plant; 0=no damage to plant) (Rates 500): 10
STEME damage rating (100=total damage to plant; 0=no damage to plant) (Rates 130): 0
STEME damage rating (100=total damage to plant; 0=no damage to plant) (Rates 250): 0
STEME damage rating (100=total damage to plant; 0=no damage to plant) (Rates 500): 10
VERPE damage rating (100=total damage to plant; 0=no damage to plant) (Rates 130): 0
VERPE damage rating (100=total damage to plant; 0=no damage to plant) (Rates 250): 0
VERPE damage rating (100=total damage to plant; 0=no damage to plant) (Rates 500): 60
damage to plant (100=total damage to plant; 0=no damage to plant), ABUTH (rate 130, evaluated after 15 d): 0
damage to plant (100=total damage to plant; 0=no damage to plant), ABUTH (rate 250, evaluated after 15 d): 0
damage to plant (100=total damage to plant; 0=no damage to plant), ABUTH (rate 500, evaluated after 15 d): 0
damage to plant (100=total damage to plant; 0=no damage to plant), AMARE (rate 130, evaluated after 15 d): 0
damage to plant (100=total damage to plant; 0=no damage to plant), AMARE (rate 250, evaluated after 15 d): 0
damage to plant (100=total damage to plant; 0=no damage to plant), AMARE (rate 500, evaluated after 15 d): 10
damage to plant (100=total damage to plant; 0=no damage to plant), BIDPI (rate 130, evaluated after 15 d): 0
damage to plant (100=total damage to plant; 0=no damage to plant), BIDPI (rate 250, evaluated after 15 d): 0
damage to plant (100=total damage to plant; 0=no damage to plant), BIDPI (rate 500, evaluated after 15 d): 0
